Measurements taken from patent US20260091027A1, “STILBENE DERIVATIVES AS WELL AS PREPARATION METHOD THEREFOR AND USE THEREOF” (THEDERMA SHANGHAI CO., LTD., priority 2022, published 2026).

How the values were obtained:
[1] = Illumination stability experiment (HPLC content); assay type: physicochemical; details: visible light 5000 ± 500 lx, ultraviolet light 250 μW/cm^2
Protocol: Test Example 2. Illumination Stability Experiment
• Stability chamber, model: ICH-110L, Memmert, USA; • High performance liquid chromatograph (HPLC), model: 1260, Agilent.
• Detection wavelength: 220 nM, 254 nM • Chromatographic column: Agilent ZORBAX SB-C8 4.6×250 mm, 5 μm • Mobile phase A: water • Mobile phase B: acetonitrile • Flow rate: 1.0 mL/min • Column temperature: 35° C. • Injection volume: 10 μL
• 1. A test compound was weighed out and placed into the stability chamber; • 2. a light source was turned on, with visible light of 5000±500 lx and ultraviolet light of 250 μW/cm^2; • 3. sampling was performed at 0 h, 8 h, 24 h, and 72 h, and the sample was dissolved in an aqueous acetonitrile solution with a volume fraction of 50%; • 4. HPLC was used for detection, and the content was determined by using the area normalization method.

[2] = target: T1, AHR protein (Homo sapiens, UniProt P35869); assay: Luciferase reporter gene assay (AHR agonistic activity); assay type: cell-based; details: HepG2-Lucia AHR cells, 24 h incubation; read-out: Luciferase-labeled human hepatoma cells (HepG2-Lucia) AHR agonist EC50
T1 construct: Human hepatoma cells HepG2-Lucia expressing AHR and luciferase; host or cells: HepG2-Lucia AHR (human hepatoma)
T1 sequence (P35869 11-848): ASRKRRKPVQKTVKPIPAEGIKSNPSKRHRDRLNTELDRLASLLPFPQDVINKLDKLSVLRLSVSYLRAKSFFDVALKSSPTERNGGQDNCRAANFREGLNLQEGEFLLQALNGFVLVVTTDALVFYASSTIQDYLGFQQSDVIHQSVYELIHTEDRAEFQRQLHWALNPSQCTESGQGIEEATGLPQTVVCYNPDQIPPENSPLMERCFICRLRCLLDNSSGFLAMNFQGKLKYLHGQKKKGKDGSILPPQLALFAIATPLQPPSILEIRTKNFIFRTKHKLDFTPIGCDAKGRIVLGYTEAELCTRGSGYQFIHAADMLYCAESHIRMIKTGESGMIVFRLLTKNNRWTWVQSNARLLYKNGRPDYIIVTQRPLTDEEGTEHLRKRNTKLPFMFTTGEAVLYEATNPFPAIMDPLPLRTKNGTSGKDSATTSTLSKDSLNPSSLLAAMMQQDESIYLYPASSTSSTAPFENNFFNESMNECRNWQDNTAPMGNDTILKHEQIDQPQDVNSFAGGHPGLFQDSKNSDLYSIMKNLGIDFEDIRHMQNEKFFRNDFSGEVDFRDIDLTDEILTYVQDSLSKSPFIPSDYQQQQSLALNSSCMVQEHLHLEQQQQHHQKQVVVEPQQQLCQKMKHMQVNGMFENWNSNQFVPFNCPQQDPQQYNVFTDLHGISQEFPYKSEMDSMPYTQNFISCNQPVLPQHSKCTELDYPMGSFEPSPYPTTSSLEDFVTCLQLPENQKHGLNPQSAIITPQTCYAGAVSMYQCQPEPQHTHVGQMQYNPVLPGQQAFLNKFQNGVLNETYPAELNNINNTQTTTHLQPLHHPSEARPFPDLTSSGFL
Protocol: Luciferase Reporter Gene Assay
In this test example, a luciferase reporter gene assay was performed to assay the agonistic activity effect of the compounds of the present disclosure on AHR protein.
• Human hepatoma cells HepG2-Lucia expressing AHR and luciferase were purchased from InvivoGen with the catalog number of hpgl-ahr;
• 1. HepG2-Lucia AHR cells were cultured in an EMEM medium containing 10% inactivated fetal bovine serum, 1×NEAA, penicillin-streptomycin, and 100 μg/mL Zeocin (bleomycin). The culture temperature was 37° C. and the concentration of carbon dioxide was 5%. • 2. After the cells were grown to about 80% confluency, the cells were digested, centrifuged, resuspended, and counted. The cells were seeded into a 384-well plate at 40 μL/well. • 3. Different concentrations of the test compounds were added by using ECHO at 40 nL/well. • 4. The 384-well plate to which the compounds were added was incubated in the incubator for 24 h. • 5. The supernatant was collected, a QUANTI-Luc Gold detection reagent was added, and the luminescence signal values were read by using the multifunctional microplate reader.

Compound | Liquid chromatography content (220 nM, %) ([1]; batch 1, 0 h) [%] | Liquid chromatography content (220 nM, %) ([1]; batch 1, 8 h) [%] | Liquid chromatography content (220 nM, %) ([1]; batch 1, 24 h) [%] | Liquid chromatography content (220 nM, %) ([1]; batch 1, 72 h) [%] | Liquid chromatography content (220 nM, %) ([1]; batch 2, 0 h) [%] | Liquid chromatography content (220 nM, %) ([1]; batch 2, 8 h) [%] | Liquid chromatography content (220 nM, %) ([1]; batch 2, 24 h) [%] | Liquid chromatography content (220 nM, %) ([1]; batch 2, 72 h) [%] | EC50 [2] [nM]
CC(C)c1c(O)cc(/C=C/c2ccccc2)cc1O [Benvitimod, reference compound] | 99.87 | 85.14 | 74.20 | 69.53 | – | – | – | – | –
CC(C)c1c(O)cc(/C=C/c2cccc(F)n2)cc1O [Comparative Example 1, reference compound] | – | – | – | – | 96.99 | 85.98 | 82.13 | 72.30 | –
CC(C)c1c(O)cc(/C=C/c2ccccc2)c(Cl)c1O [Compound 1, (E)-4-Chloro-2-isopropyl-5-styrylbenzene-1,3-diol] | – | – | – | – | – | – | – | – | 238
Cc1c(/C=C/c2ccccc2)cc(O)c(C(C)C)c1O [Compound 2, (E)-2-Isopropyl-4-methyl-5-styrylbenzene-1,3-diol] | – | – | – | – | – | – | – | – | 177
CC(C)c1c(O)cc(/C=C/c2ccccc2)c(F)c1O [Compound 3, (E)-4-Fluoro-2-isopropyl-5-styrylbenzene-1,3-diol] | 97.25 | 97.33 | 96.06 | 97.71 | – | – | – | – | 57
CC(C)c1c(O)cc(/C=C/c2ccccc2)c(Br)c1O [Compound 4, (E)-4-Bromo-2-isopropyl-5-styrylbenzene-1,3-diol] | – | – | – | – | – | – | – | – | 219
CC(C)c1c(O)cc(/C=C/c2ccc(F)cc2)c(F)c1O [Compound 5, (E)-4-Fluoro-5-(4-fluorostyryl)-2-isopropylbenzene-1,3-diol] | – | – | – | – | 99.30 | 98.80 | 99.22 | 99.06 | 6
CC(C)c1c(O)cc(/C=C/c2ccccc2F)c(F)c1O [Compound 6, (E)-4-Fluoro-5-(2-fluorostyryl)-2-isopropylbenzene-1,3-diol] | – | – | – | – | 98.31 | 98.37 | 98.27 | 98.68 | 10
CC(C)c1c(O)cc(/C=C/c2ncccc2F)c(F)c1O [Compound 7, (E)-4-Fluoro-5-[2-(3-fluoropyridin-2-yl)vinyl]-2-isopropylbenzene-1,3-diol] | – | – | – | – | 98.70 | 95.84 | 91.56 | 89.57 | 30
CC(C)c1c(O)cc(/C=C/c2ncccc2Cl)c(F)c1O [Compound 8, (E)-5-[2-(3-Chloropyridin-2-yl)vinyl]-4-fluoro-2-isopropylbenzene-1,3-diol] | – | – | – | – | – | – | – | – | 13
CC(C)c1c(O)cc(/C=C/c2ccc(F)cn2)c(F)c1O [Compound 9, (E)-4-Fluoro-5-[2-(5-fluoropyridin-2-yl)vinyl]-2-isopropylbenzene-1,3-diol] | – | – | – | – | 99.46 | 98.65 | 97.46 | 92.06 | 20
CC(C)c1c(O)cc(/C=C/c2cccc(F)n2)c(F)c1O [Compound 14, (E)-4-Fluoro-5-[2-(6-fluoropyridin-2-yl)vinyl]-2-isopropylbenzene-1,3-diol] | – | – | – | – | 88.32 | 87.83 | 88.31 | 84.37 | 27
CC(C)c1c(O)cc(/C=C/c2ccncc2)c(F)c1O [Compound 18, (E)-4-Fluoro-2-isopropyl-5-[2-(pyridin-4-yl)vinyl]benzene-1,3-diol] | – | – | – | – | – | – | – | – | 66
(E)-4-Fluoro-2-isopropyl-5-[2-(pyridin-2-yl)vinyl]benzene-1,3-diol [Compound 16] | – | – | – | – | 97.58 | 97.52 | 96.88 | 96.81 | –
